According to patent US8217043B2, “Compounds and methods for their use” (Fibrogen, Inc., priority 2008, dated 2012):

Molecular target: T1, HIF-PH2 (EGLN1) (Homo sapiens, UniProt Q9GZT9)
T1 construct: made in house; host or cells: insect Hi5 cells
Assay: HIF-PH assay (14CO2 capture, peptide-dependent turnover)
Type: biochemical
Details: Concentration 125 μM
From the text: Ketoglutaric acid α-[1-^14C]-sodium salt, alpha-ketoglutaric acid sodium salt, and HPLC purified peptide may be obtained from commercial sources, e.g., Perkin-Elmer (Wellesley Mass.), Sigma-Aldrich, and SynPep Corp. (Dublin Calif.), respectively. Peptides for use in the assay may be fragments of HIFα as described above or as disclosed in International Publication WO 2005/118836, incorporated by reference herein. HIF-PH, e.g., HIF-PH2 (EGLN1), can be expressed in, e.g., insect Hi5 cells, and partially purified, e.g., through a SP ion exchange chromatography column. Enzyme activity is determined by capturing ^14CO2 using an assay described by Kivirikko and Myllyla (1982, Methods Enzymol. 82:245-304). Assay reactions contain 50 mM HEPES (pH 7.4), 100 μM α-ketoglutaric acid sodium salt, 0.30 μCi/mL ketoglutaric acid α-[1-^14C]-sodium salt, 40 μM FeSO4, 1 mM ascorbate, 1541.8 units/mL Catalase, with or without 50 μM peptide substrate and various concentrations of compound of the invention. Reactions are initiated by addition of HIF-PH enzyme.
The peptide-dependent percent turnover is calculated by subtracting percent turnover in the absence of peptide from percent turnover in the presence of substrate peptide. Percent inhibition and IC50 are calculated using peptide-dependent percent turnover at given inhibitor concentrations. Calculation of IC50 values for each inhibitor is conducted using GraFit software (Erithacus Software Ltd., Surrey UK).
Representative compounds of the invention were analyzed using the HIF-PH assay described above. Table 1 presents enzyme inhibition data for exemplary compounds against HIF-PH2, a representative HIF prolyl hydroxylase. By inhibiting HIF prolyl hydroxylase, compounds of the invention stabilize HIFα, which then combines with HIFβ to form an active transcription factor that increases expression of various genes involved in numerous beneficial cellular processes.

T1 sequence (Q9GZT9 whole entry, species assumed): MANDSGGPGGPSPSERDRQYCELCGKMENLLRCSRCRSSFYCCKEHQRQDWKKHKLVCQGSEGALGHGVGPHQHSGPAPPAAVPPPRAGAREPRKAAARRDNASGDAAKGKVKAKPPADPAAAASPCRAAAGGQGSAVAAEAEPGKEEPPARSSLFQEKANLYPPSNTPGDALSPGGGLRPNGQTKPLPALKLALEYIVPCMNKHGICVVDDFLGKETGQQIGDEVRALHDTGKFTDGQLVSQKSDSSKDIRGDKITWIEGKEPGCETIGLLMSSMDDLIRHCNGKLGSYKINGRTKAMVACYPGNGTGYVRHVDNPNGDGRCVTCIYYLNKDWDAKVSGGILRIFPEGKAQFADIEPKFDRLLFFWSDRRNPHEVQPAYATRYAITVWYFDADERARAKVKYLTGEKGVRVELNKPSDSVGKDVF

## O=C(O)CNC(=O)c1c(O)c2cccn2n(Cc2ccccc2C(F)(F)F)c1=O [Example 16, {[1-(2-Trifluoromethyl-benzyl)-4-hydroxy-2-oxo-1,2-dihydro-pyrrolo[1,2-b]pyridazine-3-carbonyl]-amino}-acetic acid]
  inhibition at 125 µM: 98%

## O=C(O)CNC(=O)c1c(O)c2cccn2[nH]c1=O [Example 4, [(4-Hydroxy-2-oxo-1,2-dihydro-pyrrolo[1,2-b]pyridazine-3-carbonyl)-amino]-acetic acid]
  inhibition at 125 µM: 84%
